{"source": "paper PMC9712021", "about": "(Advances in Pharmacological and Pharmaceutical Sciences, 2022)", "key": {"Artemia salina": {"system": "Artemia salina", "assay": "Artemia salina bioassay (brine shrimp lethality bioassay)", "description": "This test was carried out with a slight modification, as described by Amaral et al.. Briefly, shrimp cysts were incubated in a small aquarium containing a brine solution (50 mg of cysts and 300 mL of brine) for 48 h with direct lighting. […] […] In the negative (NC) and positive (PC) control groups, saline solution and potassium dichromate (K2Cr2O7) were added, respectively. The concentration range used in the case of the PC group was 31.25 to 500 μg/mL."}, "[1]": {"assay": "Hemolytic activity in mice erythrocytes", "assay_type": "cell-based, Mus musculus", "settings": "male, Swiss albino, mouse, 37°C, 2 h", "description": "(§1) This test was performed on adult Swiss albino mouse (Mus musculus) erythrocytes. The mouse was collected from the Central Animal House of the Federal University of Piaui, Brazil. It was allowed free access to standard food and water ad libitum and was kept under controlled lighting (12 h dark/light cycles) at 24 ± 2°C. Blood was collected from the retro-orbital plexus of the mouse (male, 24 gm body weight). Hemolytic activity in mouse erythrocytes was performed, according to Jamialahmadi et al.."}, "mouse erythrocytes": {"system": "mouse erythrocytes", "assay": "Hemolytic activity in mice erythrocytes", "assay_type": "cell-based", "settings": "31.25–500 μg/mL", "description": "as §1"}, "[2]": {"system": "S. cerevisiae EG103 (SODWT)", "assay": "S. cerevisiae central disc test, oxidative damage, strain SODWT", "assay_type": "cell-based, Saccharomyces cerevisiae", "text": "(§2) The central disc test was done according to the method presented by Islam et al.. Superoxide dismutase (CuZnSOD-Sod1) is a cytosolic enzyme that is faulty in strain EG118, whereas mitochondrial SOD is faulty in strain EG110 (MnSOD-Sod2). The strain EG133 has both Sod1 and Sod2 defects, while EG223 has a cytosolic catalase deficiency (Cat1). While EG103 is a competent strain that is identical to the wild-type (SODWT), EG is a dual isogenic strain for the Sod1 and Cat1 genes."}, "[3]": {"system": "S. cerevisiae EG118 (Sod1∆)", "assay": "S. cerevisiae central disc test, oxidative damage, strain Sod1∆", "assay_type": "cell-based, Saccharomyces cerevisiae", "text": "as §2"}, "[4]": {"system": "S. cerevisiae EG110 (Sod2∆)", "assay": "S. cerevisiae central disc test, oxidative damage, strain Sod2∆", "assay_type": "cell-based, Saccharomyces cerevisiae", "text": "as §2"}, "[5]": {"system": "S. cerevisiae EG133 (Sod1∆Sod2∆)", "assay": "S. cerevisiae central disc test, oxidative damage, strain Sod1∆Sod2∆", "assay_type": "cell-based, Saccharomyces cerevisiae", "text": "as §2"}, "[6]": {"system": "S. cerevisiae EG223 (Cat1∆)", "assay": "S. cerevisiae central disc test, oxidative damage, strain Cat1∆", "assay_type": "cell-based, Saccharomyces cerevisiae", "text": "as §2"}, "[7]": {"system": "S. cerevisiae EG (Sod1∆Cat1∆)", "assay": "S. cerevisiae central disc test, oxidative damage, strain Sod1∆Cat1∆", "assay_type": "cell-based, Saccharomyces cerevisiae", "text": "as §2"}, "[8]": {"system": "S. cerevisiae strains (SODWT, Sod1Δ, Sod2Δ, Cat1Δ, Sod1/Sod2Δ, Cat1Δ/Sod1Δ)", "assay": "In vivo antioxidant (S. cerevisiae) test, all strains tested", "assay_type": "cell-based, Saccharomyces cerevisiae", "text": "as §2"}}, "data": [{"molecule": "CC(C)CCCC(C)CCO", "note": "(stereo not shown) [3,7-Dimethyl-1-octanol, 3,7-dimethyl-1-octanol]", "values": [{"measurement": "cytotoxic effects in the A. Salina test", "setting": "Artemia salina; 31.25–500 μg/mL", "result": "did not exhibit significant cytotoxic effects"}, {"measurement": "concentration from which toxicity increased in a dose-dependent manner", "setting": "Artemia salina; 48 h of exposure", "result": 125, "unit": "µg/mL"}, {"measurement": "hemolysis at 2 h, 31.25 μg/mL", "setting": "[1]; mouse erythrocyte suspension, pH 7.4, 31.25 μg/mL", "result": "3.66 ± 0.64", "unit": "%"}, {"measurement": "hemolysis at 2 h, 62.5 μg/mL", "setting": "[1]; mouse erythrocyte suspension, pH 7.4, 62.5 μg/mL", "result": "4.53 ± 0.06", "unit": "%"}, {"measurement": "hemolysis at 2 h, 250 μg/mL", "setting": "[1]; mouse erythrocyte suspension, pH 7.4, 250 μg/mL", "result": "5.64 ± 0.74", "unit": "%"}, {"measurement": "hemolysis at 2 h, 500 μg/mL", "setting": "[1]; mouse erythrocyte suspension, pH 7.4, 500 μg/mL", "result": "5.66 ± 0.56", "unit": "%"}, {"measurement": "hemolysis at 2 h, 125 μg/mL", "setting": "[1]; pH 7.4, 125 μg/mL", "result": "5.33 ± 0.75", "unit": "%"}, {"measurement": "cytotoxic effects in the hemolysis test", "setting": "mouse erythrocytes", "result": "did not exhibit significant cytotoxic effects"}, {"measurement": "oxidative damage", "setting": "[2]; 0.9 μg/mL", "result": "1.50 ± 0.70"}, {"measurement": "oxidative damage", "setting": "[2]; 1.8 μg/mL", "result": "1.50 ± 0.70"}, {"measurement": "oxidative damage", "setting": "[2]; 7.2 μg/mL", "result": "2.50 ± 0.70"}, {"measurement": "oxidative damage", "setting": "[2]; 14.4 μg/mL", "result": "2.00 ± 1.41"}, {"measurement": "oxidative damage", "setting": "[2]; 32 μg/mL", "result": "2.00 ± 0.00"}, {"measurement": "oxidative damage", "setting": "[2]; 64 μg/mL", "result": "1.50 ± 0.70"}, {"measurement": "oxidative damage", "setting": "[2]; 128 μg/mL", "result": "1.00 ± 1.41"}, {"measurement": "oxidative damage", "setting": "[2]; 3.6 mg/mL", "result": "2.00 ± 0.00"}, {"measurement": "oxidative damage", "setting": "[2]; 256 mg/mL", "result": "0.50 ± 0.70"}, {"measurement": "oxidative damage", "setting": "[2]; 500 mg/mL", "result": "2.50 ± 0.70"}, {"measurement": "oxidative damage", "setting": "[3]; 0.9 μg/mL", "result": "0.50 ± 0.70"}, {"measurement": "oxidative damage", "setting": "[3]; 1.8 μg/mL", "result": "0.00 ± 0.00"}, {"measurement": "oxidative damage", "setting": "[3]; 7.2 μg/mL", "result": "1.00 ± 0.00"}, {"measurement": "oxidative damage", "setting": "[3]; 14.4 μg/mL", "result": "1.00 ± 1.41"}, {"measurement": "oxidative damage", "setting": "[3]; 32 μg/mL", "result": "2.50 ± 0.70"}, {"measurement": "oxidative damage", "setting": "[3]; 64 μg/mL", "result": "3.00 ± 0.00"}, {"measurement": "oxidative damage", "setting": "[3]; 128 μg/mL", "result": "1.50 ± 0.70"}, {"measurement": "oxidative damage", "setting": "[3]; 3.6 mg/mL", "result": "1.50 ± 0.70"}, {"measurement": "oxidative damage", "setting": "[3]; 256 mg/mL", "result": "2.50 ± 0.70"}, {"measurement": "oxidative damage", "setting": "[3]; 500 mg/mL", "result": "3.00 ± 0.00"}, {"measurement": "oxidative damage", "setting": "[4]; 0.9 μg/mL", "result": "1.50 ± 0.70"}, {"measurement": "oxidative damage", "setting": "[4]; 1.8 μg/mL", "result": "2.00 ± 0.00"}, {"measurement": "oxidative damage", "setting": "[4]; 7.2 μg/mL", "result": "2.50 ± 0.70"}, {"measurement": "oxidative damage", "setting": "[4]; 14.4 μg/mL", "result": "1.50 ± 0.70"}, {"measurement": "oxidative damage", "setting": "[4]; 32 μg/mL", "result": "3.00 ± 0.00"}, {"measurement": "oxidative damage", "setting": "[4]; 64 μg/mL", "result": "1.00 ± 0.00"}, {"measurement": "oxidative damage", "setting": "[4]; 128 μg/mL", "result": "1.50 ± 0.70"}, {"measurement": "oxidative damage", "setting": "[4]; 3.6 mg/mL", "result": "2.50 ± 0.70"}, {"measurement": "oxidative damage", "setting": "[4]; 256 mg/mL", "result": "1.00 ± 1.41"}, {"measurement": "oxidative damage", "setting": "[4]; 500 mg/mL", "result": "2.50 ± 0.70"}, {"measurement": "oxidative damage", "setting": "[5]; 0.9 μg/mL", "result": "1.50 ± 0.70"}, {"measurement": "oxidative damage", "setting": "[5]; 1.8 μg/mL", "result": "1.00 ± 1.41"}, {"measurement": "oxidative damage", "setting": "[5]; 7.2 μg/mL", "result": "2.50 ± 0.70"}, {"measurement": "oxidative damage", "setting": "[5]; 14.4 μg/mL", "result": "2.00 ± 0.00"}, {"measurement": "oxidative damage", "setting": "[5]; 32 μg/mL", "result": "2.50 ± 0.70"}, {"measurement": "oxidative damage", "setting": "[5]; 64 μg/mL", "result": "3.50 ± 0.70"}, {"measurement": "oxidative damage", "setting": "[5]; 128 μg/mL", "result": "3.50 ± 0.70"}, {"measurement": "oxidative damage", "setting": "[5]; 3.6 mg/mL", "result": "2.00 ± 1.41"}, {"measurement": "oxidative damage", "setting": "[5]; 256 mg/mL", "result": "3.00 ± 1.41"}, {"measurement": "oxidative damage", "setting": "[5]; 500 mg/mL", "result": "2.50 ± 0.70"}, {"measurement": "oxidative damage", "setting": "[6]; 0.9 μg/mL", "result": "2.50 ± 0.70"}, {"measurement": "oxidative damage", "setting": "[6]; 1.8 μg/mL", "result": "3.50 ± 0.70"}, {"measurement": "oxidative damage", "setting": "[6]; 7.2 μg/mL", "result": "4.00 ± 0.00"}, {"measurement": "oxidative damage", "setting": "[6]; 14.4 μg/mL", "result": "3.50 ± 0.70"}, {"measurement": "oxidative damage", "setting": "[6]; 32 μg/mL", "result": "3.50 ± 2.12"}, {"measurement": "oxidative damage", "setting": "[6]; 64 μg/mL", "result": "3.50 ± 0.70"}, {"measurement": "oxidative damage", "setting": "[6]; 128 μg/mL", "result": "3.50 ± 2.12"}, {"measurement": "oxidative damage", "setting": "[6]; 3.6 mg/mL", "result": "2.50 ± 0.70"}, {"measurement": "oxidative damage", "setting": "[6]; 256 mg/mL", "result": "2.50 ± 2.12"}, {"measurement": "oxidative damage", "setting": "[6]; 500 mg/mL", "result": "3.00 ± 1.41"}, {"measurement": "oxidative damage", "setting": "[7]; 0.9 μg/mL", "result": "2.50 ± 0.70"}, {"measurement": "oxidative damage", "setting": "[7]; 1.8 μg/mL", "result": "3.00 ± 0.00"}, {"measurement": "oxidative damage", "setting": "[7]; 7.2 μg/mL", "result": "3.00 ± 1.41"}, {"measurement": "oxidative damage", "setting": "[7]; 14.4 μg/mL", "result": "2.00 ± 2.82"}, {"measurement": "oxidative damage", "setting": "[7]; 32 μg/mL", "result": "3.50 ± 0.70"}, {"measurement": "oxidative damage", "setting": "[7]; 64 μg/mL", "result": "3.00 ± 1.41"}, {"measurement": "oxidative damage", "setting": "[7]; 128 μg/mL", "result": "4.00 ± 1.41"}, {"measurement": "oxidative damage", "setting": "[7]; 256 μg/mL", "result": "3.00 ± 0.00"}, {"measurement": "oxidative damage", "setting": "[7]; 3.6 mg/mL", "result": "4.00 ± 1.41"}, {"measurement": "oxidative damage", "setting": "[7]; 500 mg/mL", "result": "3.50 ± 0.70"}, {"measurement": "percentage modulation of oxidative damage caused by the stressor H2O2", "setting": "[8]; all strains and concentrations tested", "result": "more than 60%"}, {"measurement": "induction of oxidative damage", "setting": "[8]; any concentration, any of the tested S. cerevisiae strains", "result": "did not induce oxidative damage"}]}, {"molecule": "OO", "note": "[H2O2, hydrogen peroxide, reference compound]", "values": [{"measurement": "oxidative damage", "setting": "[2]; 10 mM, positive control", "result": "30.75 ± 5.0^∗∗"}, {"measurement": "oxidative damage", "setting": "[3]; 10 mM, positive control", "result": "25.5 ± 4.2^∗∗"}, {"measurement": "oxidative damage", "setting": "[4]; 10 mM, positive control", "result": "25.25 ± 6.18^∗∗"}, {"measurement": "oxidative damage", "setting": "[5]; 10 mM, positive control", "result": "27.00 ± 5.09^∗∗"}, {"measurement": "oxidative damage", "setting": "[6]; 10 mM, positive control", "result": "24.25 ± 4.03^∗∗"}, {"measurement": "oxidative damage", "setting": "[7]; 10 mM, positive control", "result": "22.25 ± 4.57^∗∗"}]}]}
